In one assay the test system is MCF7. The assay is described as follows: Antiproliferative activity against human MCF7 cells assessed as reduction in cell viability incubated for 6 days by CellTiter-Glo reagent based luminescence analysis. A general note: In ATP-based viability assays light output follows the ATP content of the culture.
For the next assay, the system named is T47D. The assay is described as follows: Antiproliferative activity against human T47D cells assessed as reduction in cell viability.
The test system of another assay is CAMA-1. The assay is described as follows: Antiproliferative activity against human CAMA-1 cells assessed as reduction in cell viability.
Another assay relates to BT-474. As to the kind of experiment: Antiproliferative activity against human BT-474 cells assessed as reduction in cell viability.
In the next assay the test system is MDA-MB-361. As to the kind of experiment: Antiproliferative activity against human MDA-MB-361 cells assessed as reduction in cell viability.
In assay [1] the target is Voltage-gated inwardly rectifying potassium channel KCNH2 (Homo sapiens, UniProt Q12809). As to the kind of experiment: Inhibition of hERG expressed in CHO cells assessed as inhibition of channel current by automated Qpatch clamp analysis. (In general: hERG is a cardiac potassium channel; its block is linked to QT prolongation.)
The target in a further assay is T1, Estrogen receptor (Homo sapiens, UniProt P03372).
T1 sequence (P03372 whole entry): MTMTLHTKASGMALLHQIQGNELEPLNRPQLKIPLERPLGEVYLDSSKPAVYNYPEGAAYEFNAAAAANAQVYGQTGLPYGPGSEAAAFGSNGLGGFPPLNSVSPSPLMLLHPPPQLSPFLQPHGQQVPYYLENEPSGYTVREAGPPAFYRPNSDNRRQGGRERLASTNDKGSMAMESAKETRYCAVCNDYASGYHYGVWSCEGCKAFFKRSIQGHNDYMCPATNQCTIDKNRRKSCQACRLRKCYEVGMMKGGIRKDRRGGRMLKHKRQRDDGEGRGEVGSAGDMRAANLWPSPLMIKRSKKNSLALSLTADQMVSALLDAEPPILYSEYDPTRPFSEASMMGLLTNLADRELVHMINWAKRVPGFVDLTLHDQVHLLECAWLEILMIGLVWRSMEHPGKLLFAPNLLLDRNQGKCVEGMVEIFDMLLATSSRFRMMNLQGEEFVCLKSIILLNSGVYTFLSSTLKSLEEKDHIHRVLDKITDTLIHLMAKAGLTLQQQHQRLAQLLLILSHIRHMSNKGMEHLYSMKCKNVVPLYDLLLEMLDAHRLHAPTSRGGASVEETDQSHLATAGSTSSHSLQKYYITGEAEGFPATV
As to the kind of experiment: Induction of ER-alpha degradation in human MCF7 cells incubated for 24 hrs by In-Cell Western blot analysis. It is filed as cell-based.

For orientation: IC50 means the concentration needed to halve the response being measured. Broadly, the DC50 is the concentration at which degradation of the target reaches its halfway point.

Sequence of Voltage-gated inwardly rectifying potassium channel KCNH2 (Q12809 whole entry): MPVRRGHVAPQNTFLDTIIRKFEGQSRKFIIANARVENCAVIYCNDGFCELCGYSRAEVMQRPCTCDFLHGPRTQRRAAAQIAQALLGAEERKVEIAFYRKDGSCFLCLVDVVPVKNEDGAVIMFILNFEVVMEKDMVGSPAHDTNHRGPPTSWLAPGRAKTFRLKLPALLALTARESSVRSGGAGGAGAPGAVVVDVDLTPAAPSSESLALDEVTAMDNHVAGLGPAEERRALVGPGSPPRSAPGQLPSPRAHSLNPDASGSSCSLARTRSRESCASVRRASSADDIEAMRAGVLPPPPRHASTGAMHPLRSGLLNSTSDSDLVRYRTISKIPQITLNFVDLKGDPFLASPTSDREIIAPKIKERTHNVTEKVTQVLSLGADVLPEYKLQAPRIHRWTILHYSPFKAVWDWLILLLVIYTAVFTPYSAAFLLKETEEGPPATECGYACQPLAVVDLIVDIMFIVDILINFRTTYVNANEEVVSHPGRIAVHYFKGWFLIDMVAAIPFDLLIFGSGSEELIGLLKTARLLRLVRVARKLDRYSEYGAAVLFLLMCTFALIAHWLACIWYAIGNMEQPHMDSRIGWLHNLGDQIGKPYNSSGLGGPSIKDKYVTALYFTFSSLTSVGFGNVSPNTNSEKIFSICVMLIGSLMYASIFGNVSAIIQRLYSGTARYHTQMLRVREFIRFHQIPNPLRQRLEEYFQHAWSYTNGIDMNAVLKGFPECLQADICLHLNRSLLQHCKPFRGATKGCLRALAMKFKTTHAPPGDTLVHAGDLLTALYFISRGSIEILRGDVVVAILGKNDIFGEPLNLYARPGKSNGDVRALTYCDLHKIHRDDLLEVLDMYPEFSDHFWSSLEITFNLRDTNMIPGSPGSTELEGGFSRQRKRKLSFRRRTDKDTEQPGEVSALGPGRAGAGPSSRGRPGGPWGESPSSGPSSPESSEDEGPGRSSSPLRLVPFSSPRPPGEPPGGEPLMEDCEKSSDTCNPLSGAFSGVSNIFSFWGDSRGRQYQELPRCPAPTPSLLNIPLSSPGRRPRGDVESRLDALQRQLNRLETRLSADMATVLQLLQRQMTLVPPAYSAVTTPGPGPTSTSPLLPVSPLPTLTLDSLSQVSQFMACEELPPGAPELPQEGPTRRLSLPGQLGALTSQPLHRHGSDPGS

For the compound `Oc1ccc2c(c1)SC[C@H](c1cc(F)c(F)cc1F)[C@@H]2c1ccc(OCCN2CC(CF)C2)cc1`, the IC50 in the assay on MCF7 (mcf7) was 0.25 nM; with T47D, 4 nM; in the assay with CAMA-1, 4 nM; with BT-474 it was 4 nM; with MDA-MB-361, ~15 nM.

Take `Oc1ccc2c(c1)SC[C@@H](c1cc(F)c(F)cc1F)[C@H]2c1ccc(OCCN2CC(CF)C2)cc1`: the IC50 with MCF7 (Homo sapiens, MCF7, 144 h) worked out at 714 nM.

`Oc1ccc2c(c1)OCC(c1ccc(F)cc1F)=C2c1ccc(OCCN2CC(CF)C2)cc1`: the IC50 in the assay with MCF7 (Homo sapiens, MCF7, 144 h) was 58 nM.

As for `COc1cc(F)ccc1[C@@H]1CSc2cc(O)ccc2[C@@H]1c1ccc(OCCN2CC(CF)C2)cc1`, in the assay with MCF7 (Homo sapiens, MCF7, 144 h), the IC50 is 25 nM.

As to `COc1ccc([C@H]2COc3cc(O)ccc3[C@H]2c2ccc(OCCN3CC(CF)C3)cc2)c(F)c1` (racemic), the IC50 stood at 0.87 nM with MCF7 (Homo sapiens, MCF7, 144 h) and 3500 nM in assay [1].

As to `Oc1ccc2c(c1)SC[C@H](c1ccc(F)cc1F)[C@@H]2c1ccc(OCCN2CC(CF)C2)cc1` (racemic), the 50% inhibitory concentration (IC50) in the assay on MCF7 (Homo sapiens, MCF7, 144 h) came to 0.6 nM; in assay [1] it was 13000 nM.

For `Oc1ccc2c(c1)OC[C@H](C1CCOCC1)[C@@H]2c1ccc(OCCN2CC(CF)C2)cc1` (racemic), in the assay on MCF7 (Homo sapiens, MCF7, 144 h), the IC50 was determined as 1.6 nM.

On to `COc1cc(F)ccc1[C@H]1COc2cc(O)ccc2[C@H]1c1ccc(OCCN2CC(CF)C2)cc1` (racemic), for which the half-inhibitory concentration (IC50) in the assay with MCF7 (Homo sapiens, MCF7, 144 h) came to 0.56 nM; in assay [1] it was 4800 nM.

On to `Oc1ccc2c(c1)OC[C@H](c1ccc(F)cc1F)[C@@H]2c1ccc(NC2CN(CCCF)C2)cc1` (racemic), for which the IC50 with MCF7 (Homo sapiens, MCF7, 144 h) is 3.1 nM; in assay [1] it was 3600 nM. Further, the DC50 at Estrogen receptor is 1 nM.

Consider `Oc1ccc2c(c1)OC[C@H](c1ccc(F)cc1F)[C@@H]2c1ccc(OCCN2CC(CF)C2)nc1` (racemic), for which the IC50 in the assay with MCF7 (Homo sapiens, MCF7, 144 h) came to 1.7 nM.

For `COc1cc(F)ccc1[C@H]1CSc2cc(O)ccc2[C@H]1c1ccc(OCCN2CC(CF)C2)cc1` (racemic), the IC50 in the assay on MCF7 (mcf7) was 0.6 nM; in assay [1], > 40000 nM.

With `Oc1ccc2c(c1)SC[C@H](c1cc(F)c(F)cc1F)[C@@H]2c1ccc(OCCN2CC(CF)C2)cc1` (racemic), the IC50 in the assay with MCF7 (Homo sapiens, MCF7, 144 h) came to 0.4 nM.

With `CC(=O)N1CCC([C@H]2COc3cc(O)ccc3[C@H]2c2ccc(OCCN3CC(CF)C3)cc2)CC1` (racemic), in the assay with MCF7 (Homo sapiens, MCF7, 144 h), the IC50 was 9.5 nM. The DC50 at Estrogen receptor came out at 24 nM.

As for `COc1cc(F)ccc1[C@H]1CSc2c(ccc3[nH]ncc23)[C@H]1c1ccc(OCCN2CC(CF)C2)cc1` (racemic), in the assay with MCF7 (Homo sapiens, MCF7, 144 h), the IC50 turned out to be 7.4 nM. This compound registered a DC50 at Estrogen receptor of 6.3 nM.

Regarding `COc1cc(F)ccc1[C@H]1CSc2cc(O)ccc2[C@H]1c1ccc(OCCN2CC(CF)C2)c(F)c1` (racemic), the concentration for half-maximal inhibition (IC50) was 0.7 nM in the assay on MCF7 (Homo sapiens, MCF7, 144 h) and > 40000 nM in assay [1].

Turning to `Oc1ccc2c(c1)CCC[C@H](c1ccc(F)cc1F)[C@@H]2c1ccc(OCCN2CC(CF)C2)cc1` (racemic), the IC50 in the assay on MCF7 (Homo sapiens, MCF7, 144 h) was 19 nM; in assay [1], > 40000 nM. The same compound gave a DC50 at Estrogen receptor of 22.7 nM.

Regarding `Oc1ccc2c(c1)OC[C@H](c1ccc(F)cc1F)[C@@H]2c1ccc(OCCN2CC(CF)C2)cc1` (racemic), the IC50 with MCF7 (Homo sapiens, MCF7, 144 h) worked out at 1.2 nM.

Regarding `COc1ccc([C@H]2CSc3cc(O)ccc3[C@H]2c2ccc(OCCN3CC(CF)C3)cc2)c(F)c1` (racemic), the IC50 in the assay with MCF7 (Homo sapiens, MCF7, 144 h) was 0.4 nM.

On to `Oc1ccc2c(c1)OC[C@H](c1ccc(Cl)cc1F)[C@@H]2c1ccc(OCCN2CC(CF)C2)cc1` (racemic), for which the IC50 with MCF7 (Homo sapiens, MCF7, 144 h) was found to be 4.2 nM.

As for `Oc1ccc2c(c1)OC[C@H](c1cc(F)c(F)cc1F)[C@@H]2c1ccc(OCCN2CC(CF)C2)cc1` (racemic), the IC50 in assay [1] turned out to be 2800 nM.

As to `Oc1ccc2c(c1)OC[C@H](c1ccc(F)cc1F)[C@@H]2c1cc(F)c(OCCN2CC(CF)C2)c(F)c1` (racemic), the IC50 came to 1.4 nM in the assay with MCF7 (Homo sapiens, MCF7, 144 h) and 1900 nM in assay [1].

As for `Oc1ccc2c(c1)OC[C@H](c1ccc(F)cc1F)[C@@H]2c1ccc(OCCN2CC(CF)C2)c(F)c1` (racemic), the IC50 in assay [1] was found to be 6400 nM.

(Values after ChEMBL document CHEMBL6083291, “Discovery of Thiochroman Derivatives as Potent, Oral Selective Estrogen Receptor Degraders and Antagonists for the Treatment of Endocrine-Resistant Breast Cancer” (J Med Chem, 2024).)
